Results from ChEMBL document CHEMBL5380842, “Discovery of a Potent and Selective CCR8 Small Molecular Antagonist IPG7236 for the Treatment of Cancer” (J Med Chem, 2023).

How the values were obtained:
[1] = Apparent permeability of compound across apical to basal side in human Caco2 cells at 10 uM incubated for 120 mins by LC-MS/MS analysis; conditions: Caco-2
[2] = Unbound fraction in mouse plasma; assay type: ADME, cell-free
[3] = Unbound fraction in human plasma; assay type: ADME, cell-free
[4] = Stability in rat liver microsomes assessed as half life; assay type: ADME, Microsome
[5] = Stability in dog liver microsomes assessed as half life; assay type: ADME, Canis lupus familiaris, Microsome
[6] = Stability in human hepatocytes assessed as half life; assay type: ADME, cell-based, Hepatocyte
[7] = target: T1, Cytochrome P450 1A2 (Homo sapiens, UniProt P05177); assay: Inhibition of CYP1A2 (unknown origin); assay type: ADME
T1 sequence (P05177 whole entry): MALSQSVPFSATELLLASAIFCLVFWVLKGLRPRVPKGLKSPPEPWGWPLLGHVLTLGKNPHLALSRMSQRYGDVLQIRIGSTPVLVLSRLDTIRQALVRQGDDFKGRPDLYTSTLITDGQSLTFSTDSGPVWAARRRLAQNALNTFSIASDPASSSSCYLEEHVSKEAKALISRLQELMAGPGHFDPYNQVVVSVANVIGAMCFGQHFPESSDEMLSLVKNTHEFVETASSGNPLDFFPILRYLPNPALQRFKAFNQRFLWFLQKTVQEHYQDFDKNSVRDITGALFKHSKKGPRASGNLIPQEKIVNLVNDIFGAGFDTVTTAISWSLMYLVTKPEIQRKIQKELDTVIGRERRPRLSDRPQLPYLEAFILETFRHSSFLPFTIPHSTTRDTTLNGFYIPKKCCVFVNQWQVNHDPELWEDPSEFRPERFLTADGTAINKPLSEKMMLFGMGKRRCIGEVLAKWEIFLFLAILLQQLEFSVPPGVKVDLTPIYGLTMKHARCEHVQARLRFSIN

[8] = target: T2, Cytochrome P450 2B6 (Homo sapiens, UniProt P20813); assay: Inhibition of CYP2B6 (unknown origin); assay type: ADME
T2 sequence (P20813 whole entry): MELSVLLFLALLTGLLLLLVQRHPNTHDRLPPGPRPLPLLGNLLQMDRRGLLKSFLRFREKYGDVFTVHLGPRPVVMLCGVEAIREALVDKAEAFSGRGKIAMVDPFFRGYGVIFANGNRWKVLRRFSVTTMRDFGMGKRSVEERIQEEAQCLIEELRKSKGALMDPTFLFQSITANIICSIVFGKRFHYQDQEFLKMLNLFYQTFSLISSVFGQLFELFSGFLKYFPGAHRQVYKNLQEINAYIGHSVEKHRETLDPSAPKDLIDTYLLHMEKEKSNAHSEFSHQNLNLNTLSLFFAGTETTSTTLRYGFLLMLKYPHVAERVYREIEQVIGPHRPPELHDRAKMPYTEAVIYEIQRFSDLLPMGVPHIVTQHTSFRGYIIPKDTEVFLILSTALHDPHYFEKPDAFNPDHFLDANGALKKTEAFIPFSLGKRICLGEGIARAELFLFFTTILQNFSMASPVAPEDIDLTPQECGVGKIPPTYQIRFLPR

[9] = target: T3, Cytochrome P450 2C8 (Homo sapiens, UniProt P10632); assay: Inhibition of CYP2C8 (unknown origin); assay type: ADME
T3 sequence (P10632 whole entry): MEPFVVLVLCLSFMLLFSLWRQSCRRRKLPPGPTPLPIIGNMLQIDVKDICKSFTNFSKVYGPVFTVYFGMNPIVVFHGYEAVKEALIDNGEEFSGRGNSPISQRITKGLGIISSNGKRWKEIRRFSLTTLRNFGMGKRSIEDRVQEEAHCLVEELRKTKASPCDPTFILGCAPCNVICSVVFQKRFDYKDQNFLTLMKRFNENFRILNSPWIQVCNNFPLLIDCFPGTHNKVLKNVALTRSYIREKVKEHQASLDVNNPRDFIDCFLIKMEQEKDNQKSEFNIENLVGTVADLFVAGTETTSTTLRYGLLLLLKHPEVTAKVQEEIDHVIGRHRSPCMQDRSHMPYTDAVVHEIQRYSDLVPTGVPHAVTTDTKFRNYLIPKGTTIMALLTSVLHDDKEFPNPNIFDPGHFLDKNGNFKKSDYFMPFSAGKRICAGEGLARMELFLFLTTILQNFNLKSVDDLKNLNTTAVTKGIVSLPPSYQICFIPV

[10] = target: Cytochrome P450 2D6 (Homo sapiens, UniProt P10635); assay: Inhibition of CYP2D6 (unknown origin); assay type: ADME
Sequence of Cytochrome P450 2D6 (P10635 whole entry): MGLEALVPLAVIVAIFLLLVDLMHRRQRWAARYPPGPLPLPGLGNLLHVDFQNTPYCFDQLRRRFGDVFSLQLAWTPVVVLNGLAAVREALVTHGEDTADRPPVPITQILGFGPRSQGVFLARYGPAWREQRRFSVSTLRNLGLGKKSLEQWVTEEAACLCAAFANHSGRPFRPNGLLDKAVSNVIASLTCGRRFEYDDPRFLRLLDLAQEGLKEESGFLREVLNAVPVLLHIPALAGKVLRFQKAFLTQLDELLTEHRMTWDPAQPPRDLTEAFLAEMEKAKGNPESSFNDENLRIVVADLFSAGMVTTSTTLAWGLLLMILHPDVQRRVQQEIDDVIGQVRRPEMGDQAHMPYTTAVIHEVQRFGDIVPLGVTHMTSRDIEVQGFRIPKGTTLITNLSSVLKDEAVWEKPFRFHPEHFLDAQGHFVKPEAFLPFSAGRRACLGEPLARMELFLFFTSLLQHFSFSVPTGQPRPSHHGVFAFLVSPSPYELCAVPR

[11] = target: T4, Cytochrome P450 3A4 (Homo sapiens, UniProt P08684); assay: Inhibition of CYP3A4-T (unknown origin); assay type: ADME
T4 sequence (P08684 whole entry): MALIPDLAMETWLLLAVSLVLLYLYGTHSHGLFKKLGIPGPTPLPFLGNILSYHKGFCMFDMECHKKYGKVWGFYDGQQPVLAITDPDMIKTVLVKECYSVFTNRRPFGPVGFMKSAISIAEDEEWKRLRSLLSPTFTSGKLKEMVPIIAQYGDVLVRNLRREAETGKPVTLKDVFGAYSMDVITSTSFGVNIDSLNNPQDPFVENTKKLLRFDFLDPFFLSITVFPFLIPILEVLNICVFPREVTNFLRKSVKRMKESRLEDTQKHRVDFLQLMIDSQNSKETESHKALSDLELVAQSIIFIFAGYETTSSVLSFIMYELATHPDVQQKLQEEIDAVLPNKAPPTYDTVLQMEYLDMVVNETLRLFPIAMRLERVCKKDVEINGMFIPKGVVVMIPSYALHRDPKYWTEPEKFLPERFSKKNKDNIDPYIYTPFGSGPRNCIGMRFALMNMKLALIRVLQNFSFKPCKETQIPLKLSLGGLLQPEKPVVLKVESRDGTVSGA

[12] = target: T4, Cytochrome P450 3A4; assay: Inhibition of CYP3A4-M (unknown origin); assay type: ADME
[13] = Cytotoxicity against human primary hepatocytes; assay type: toxicity, cell-based, Hepatocyte
[14] = Clearance in ICR mouse at 1 mg/kg, iv; assay type: ADME, organism-based; conditions: in vivo
[15] = AUClast in ICR mouse at 1 mg/kg, iv; assay type: ADME, organism-based; design: dose 1 mg/kg, route iv; conditions: in vivo
[16] = AUClast in ICR mouse at 50 mg/kg, po; assay type: ADME, organism-based; design: dose 50 mg/kg, route po; conditions: in vivo
[17] = Tmax in ICR mouse at 50 mg/kg, po; assay type: ADME, organism-based; conditions: in vivo
[18] = Oral bioavailability in ICR mouse at 50 mg/kg; assay type: ADME, organism-based; conditions: in vivo
[19] = AUClast in Sprague-Dawley rat at 50 mg/kg, po; assay type: ADME, organism-based; design: dose 50 mg/kg, route po; conditions: in vivo
[20] = Oral bioavailability in Sprague-Dawley rat at 50 mg/kg; assay type: ADME, organism-based; conditions: in vivo
[21] = Clearance in Beagle dog at 3 mg/kg, iv; assay type: ADME, organism-based, Canis lupus familiaris; conditions: in vivo
[22] = Volume of distribution at steady state in Beagle dog at 3 mg/kg, iv; assay type: ADME, organism-based, Canis lupus familiaris; conditions: in vivo, read-out: Vdss
[23] = AUClast in Beagle dog at 10 mg/kg, po; assay type: ADME, organism-based, Canis lupus familiaris; design: dose 10 mg/kg, route po; conditions: in vivo
[24] = Oral bioavailability in Beagle dog at 10 mg/kg; assay type: ADME, organism-based, Canis lupus familiaris; conditions: in vivo
[25] = Clearance in Cynomolgous monkey at 1 mg/kg, iv; assay type: ADME, organism-based, Macaca fascicularis; conditions: cynomolgus monkey, in vivo
[26] = AUClast in Cynomolgous monkey at 1 mg/kg, iv; assay type: ADME, organism-based, Macaca fascicularis; design: dose 1 mg/kg, route iv; conditions: cynomolgus monkey, in vivo
[27] = Tmax in Cynomolgous monkey at 50 mg/kg, po; assay type: ADME, organism-based, Macaca fascicularis; conditions: cynomolgus monkey, in vivo
[28] = Oral bioavailability in Cynomolgous monkey at 50 mg/kg; assay type: ADME, organism-based, Macaca fascicularis; conditions: cynomolgus monkey, in vivo
[29] = test system: MDA-MB-231; assay: Antitumor activity against human MDA-MB-231 cells xenografted in humanized NCG mouse assessed as tumor growth inhibition at 10 mg/kg, IG bid measured after 22 days relative to control; assay type: functional; conditions: MDA-MB-231, po, 528 h, time 22 day, read-out: TGI
[30] = test system: MDA-MB-231; assay: Antitumor activity against human MDA-MB-231 cells xenografted in humanized NCG mouse assessed as tumor growth inhibition at 50 mg/kg, IG bid measured after 22 days relative to control; assay type: functional; conditions: MDA-MB-231, po, 528 h, time 22 day, read-out: TGI
[31] = test system: MDA-MB-231; assay: Antitumor activity against human MDA-MB-231 cells xenografted in humanized NCG mouse assessed as […] in tumor-infiltrating CD8+ T cells administered intragastrically twice everyday; assay type: functional, cell-based; conditions: dose 2-50 mg/kg, route ig
[32] = Toxicity in humanized NCG mouse xenografted with human MDA-MB-231 cells administered intragastrically twice everyday; conditions: in vivo, po
[33] = test system: MDA-MB-231; assay: Synergistic antitumor activity against human MDA-MB-231 cells xenografted in humanized NCG mouse assessed as tumor growth inhibition at 10 mg/kg, po bid in presence of PD-1 antibody relative to control; assay type: functional; conditions: read-out: TGI

Cc1cc(S(=O)(=O)N[C@H](C)C2CCN(C)CC2)ccc1NC(=O)c1ccccc1C
Papp A→B at 2 h, 10 µM [1]: 3.7 ×10⁻⁶ cm/s
fraction unbound [2]: 0.449
fraction unbound [3]: 0.358
half-life [4]: 2.5 h
half-life [5]: 2.63 h
half-life [6]: 8.7 h
IC50 [7]: > 10 µM
IC50 [8]: > 10 µM
IC50 [9]: > 10 µM
IC50 [10]: > 10 µM
IC50 [11]: > 10 µM
IC50 [12]: > 10 µM
IC50 [13]: > 150 µM
clearance [14]: 24.5 mL/min/kg
AUC(0-t) [15]: 666 ng·h/mL
AUC(0-t) [16]: 22100 ng·h/mL
Tmax [17]: 0.5 h
bioavailability [18]: 65%
AUC(0-t) [19]: 13600 ng·h/mL
bioavailability [20]: 66%
clearance [21]: 14.2 mL/min/kg
Vd [22]: 2.2 L/kg
AUC(0-t) [23]: 6480 ng·h/mL
bioavailability [24]: 55%
clearance [25]: 31.1 mL/min/kg
AUC(0-t) [26]: 538 ng·h/mL
Tmax [27]: 2.3 h
bioavailability [28]: 105%
inhibition in vivo at 10 mg/kg [29]: 28.3%
inhibition in vivo at 50 mg/kg [30]: 55.6%
Activity [31]: Dose-Dependent Effect
MED [32]: 10 mg/kg
inhibition in vivo at 10 mg/kg [33]: 73.8%
